Test results as given in patent US20050256003A1, “Novel herbicides” (priority 2002, published 2005).

Tested on: monocotyledonous and dicotyledonous test plants
Assay: Post-emergence herbicidal action
Format: in vivo
Design: key: 10=total damage; 0=no action; Ratings of from 10 to 7 (especially from 10 to 8) indicate good to very good herbicidal action
Conditions: 250 g a.i./ha, about 18 days, rating 0-10
Method: Post-Emergence Herbicidal Action
In a greenhouse, monocotyledonous and dicotyledonous test plants are grown in standard soil in plastic pots and at the 4- to 6-leaf stage are sprayed with an aqueous suspension of the test compounds of formula I prepared from a 25% wettable powder (Example F3, b) according to WO 97/34485) or with an emulsion of the test compounds of formula I prepared from a 25% emulsifiable concentrate (Example F1, c) according to WO 97/34485), in a concentration corresponding to 125 g or 250 g of active ingredient/ha (500 litres of water/ha). The test plants are then grown on in a greenhouse under optimum conditions. After a test duration of about 18 days, the test is evaluated in accordance with a scale of nine ratings (10=total damage, 0=no action). Ratings of from 10 to 7 (especially from 10 to 8) indicate good to very good herbicidal action.

Row | Structure (SMILES) | Post-emergence action, Amaranthus | Post-emergence action, Chenopodium | Post-emergence action, Echinochloa | Post-emergence action, Euphorbia | Post-emergence action, Ipomea | Post-emergence action, Sinapis | Post-emergence action, Stellaria | Post-emergence action, Xanthium
1 | O=C1CCCC(O)=C1C(=O)c1ccc(C(F)(F)F)nc1Cn1sc(Cl)cc1=O [Compound A1.115] | 9 | 9 | 7 | 8 | 7 | 3 | 9 | 9
2 | CN1CCN(Cc2nc(C(F)(F)F)ccc2C(=O)C2=C(O)CCCC2=O)C1=S [Compound A1.202] | 9 | 8 | 8 | 9 | 9 | 8 | 7 | 9
3 | CCOc1nn(Cc2nc(C(F)(F)F)ccc2C(=O)C2=C(O)CCCC2=O)c(=O)n1C [Compound A1.037] | 9 | 9 | 4 | 8 | 9 | 8 | 8 | 9
4 | COc1nn(Cc2nc(C(F)(F)F)ccc2C(=O)c2cnn(C)c2O)c(=O)n1C1CC1 [Compound B1.039] | 6 | 8 | 9 | 9 | 8 | 9 | 9 | 8
5 | CC(C)c1cn(-c2ccccc2)c(=O)n1Cc1nc(C(F)(F)F)ccc1C(=O)c1cnn(C)c1O [Compound B1.158] | 7 | 8 | 4 | 7 | 8 | 7 | 7 | 5
6 | CCOc1nn(Cc2nc(C(F)(F)F)ccc2C(=O)C2=C(O)CCCC2=O)c(=O)n1C [Compound A1.043] | 9 | 9 | 7 | 7 | 9 | 6 | 9 | 9
7 | COc1nn(Cc2nc(C(F)(F)F)ccc2C(=O)c2cnn(C)c2O)c(=O)n1C [Compound B1.004] | 8 | 9 | 8 | 9 | 8 | 10 | 8 | 9
8 | CCOc1nn(Cc2nc(C(F)(F)F)ccc2C(=O)c2cnn(C)c2O)c(=O)n1C [Compound B1.005] | 9 | 9 | 4 | 9 | 8 | 9 | 8 | 6
9 | Cc1nn(CCOCc2nc(C(F)(F)F)ccc2C(=O)C2=C(O)C3CCC(C3)C2=O)c(=O)s1 (centres unmarked) [Compound A6.082] | 8 | 9 | 7 | 7 | 8 | 5 | 9 | 7
10 | COc1nn(Cc2nc(C(F)(F)F)ccc2C(=O)C2=C(O)C(C)(C)C(=O)C(C)(C)C2=O)c(=O)s1 [Compound A8.095] | 9 | 5 | 9 | 0 | 9 | 8 | 7 | 8
11 | COc1nn(Cc2nc(C(F)(F)F)ccc2C(=O)C2=C(O)C3CCC(C3)C2=O)c(=O)s1 (centres unmarked) [Compound A6.091] | 8 | 9 | 9 | 8 | 8 | 8 | 9 | 9
12 | CSC(=O)n1c(C)cc(=O)n1Cc1nc(C(F)(F)F)ccc1C(=O)C1=C(O)C(C)(C)C(=O)C(C)(C)C1=O [Compound A8.062] | 9 | 10 | 9 | 9 | 8 | 9 | 5 | 0
13 | Cc1nn(Cc2nc(C(F)(F)F)ccc2C(=O)C2=C(O)C(C)(C)CC(C)(C)C2=O)c(=O)s1 [Compound A7.009] | 4 | 9 | 7 | 7 | 7 | 8 | 7 | 7
14 | COc1nn(Cc2nc(C(F)(F)F)ccc2C(=O)C2=C(O)CCCC2=O)c(=O)n1C1CC1 [Compound A1.031] | 9 | 10 | 7 | 8 | 9 | 8 | 9 | 9
15 | Cn1ncc(C(=O)c2ccc(C(F)(F)F)nc2Cn2c(=O)oc3cc(Cl)ccc32)c1O [Compound B1.194] | 9 | 9 | 9 | 9 | 7 | 7 | 8 | 9
16 | Cn1c(C(F)(F)F)nn(Cc2nc(C(F)(F)F)ccc2C(=O)C2=C(O)CCCC2=O)c1=O [Compound A1.007] | 9 | 10 | 8 | 4 | 9 | 8 | 7 | 9
17 | COc1nn(Cc2nc(C(F)(F)F)ccc2C(=O)C2=C(O)CCCC2=O)c(=O)n1C [Compound A1.019] | 9 | 9 | 8 | 9 | 9 | 8 | 8 | 9
18 | Cc1nn(Cc2nc(C(F)(F)F)ccc2C(=O)C2=C(O)C(C)(C)CC(C)(C)C2=O)c(=O)o1 [Compound A7.008] | 5 | 9 | 7 | 7 | 7 | 9 | 9 | 8
19 | CCOc1nn(Cc2nc(C(F)(F)F)ccc2C(=O)c2cnn(C)c2O)c(=O)n1C1CC1 [Compound B1.056] | 9 | 8 | 9 | 9 | 10 | 8 | 7 | 0
20 | Cc1nn(Cc2nc(C(F)(F)F)ccc2C(=O)C2=C(O)C3CCC(C3)C2=O)c(=O)o1 (centres unmarked) [Compound A6.097] | 7 | 9 | 7 | 7 | 7 | 8 | 9 | 7
21 | CSC(=O)n1c(C)cc(=O)n1Cc1nc(C(F)(F)F)ccc1C(=O)c1cnn(C)c1O [Compound B1.062] | 9 | 9 | 4 | 9 | 7 | 8 | 8 | 6
22 | CCN1C(=O)N(Cc2nc(C(F)(F)F)ccc2C(=O)C2=C(O)C(C)(C)C(=O)C(C)(C)C2=O)C(=O)C1C (centres unmarked) [Compound A8.174] | 8 | 9 | 0 | 7 | 8 | 7 | 7 | 7
